Source: ChEMBL document CHEMBL2151032, “Structural and enzymatic analyses reveal the binding mode of a novel series of Francisella tularensis enoyl reductase (FabI) inhibitors” (J Med Chem, 2012)

Target: T1, Enoyl-[acyl-carrier-protein] reductase [NADH] (Francisella tularensis subsp. tularensis (strain SCHU S4 / Schu 4), UniProt Q5NGQ3)
T1 sequence (Q5NGQ3 whole entry): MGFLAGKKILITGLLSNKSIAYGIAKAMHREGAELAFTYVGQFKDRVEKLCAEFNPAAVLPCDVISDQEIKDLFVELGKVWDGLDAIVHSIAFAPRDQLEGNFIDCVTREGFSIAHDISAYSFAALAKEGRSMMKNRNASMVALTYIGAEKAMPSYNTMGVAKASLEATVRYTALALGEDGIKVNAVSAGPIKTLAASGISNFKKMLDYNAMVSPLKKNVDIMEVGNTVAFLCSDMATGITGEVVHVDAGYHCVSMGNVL

Cc1cc2ncn(Cc3ccc(Cl)c(Cl)c3)c2cc1C
Ki: 360 nM
